Where two headings read alike, the source gives them in different places.
Tests used:
[1] = biological target: human Menin and N-terminal portion of human MLL (amino acids 4-43) (Homo sapiens (Human), UniProt O00255); experiment: Menin-MLL competition assay (HTRF); type: binding; conditions: 1 hr incubation
Text: Menin-MLL is a competition assay between human Menin and N-terminal portion of human MLL representing amino acids 4-43 of the protein. The interaction between Menin and MLL peptide was monitored by HTRF employing Terbium labeled anti-His6 antibody directed to the N-terminal His6-tag on recombinant Menin and FITC group covalently attached to the MLL peptide. The N-terminal fragment of MLL, retained in all MLL fusion proteins, is involved in the interactions with Menin, and this protein-protein interaction is critical for the MLL fusion proteins mediated leukemogenic transformations.
For IC50 determination test compounds were prepared as 10 mM DMSO stock solutions. Considering DMSO as the vehicle in the assay system. Lower sub-stocks of 50 μM were prepared from the 10 mM stock solution. To test the compounds in assay, 3.16-fold serial dilutions are made in 100% DMSO. Mid-stock of 50× compounds (50 μM) were serially diluted (3.16 fold) in 100% DMSO in Polypropylene plate. In assay plate 1 micro-litre of the previously prepared compound dilution was stamped. H-FL-Menin diluted to 4 nM in assay buffer (50 mM Tris-HCl, pH 7.4, 50 mM NaCl, freshly prepared 1 mM DTT, 0.01% BSA, 0.005% Triton X-100) was pre-incubated with 8 nM anti-His6-Tb for 30 min at room temperature. […]

[2] = tested on: MV4-11 cells; experiment: Cell proliferation assay MV4;11 (CellTiter-Glo, 72 hours); type: cell-based; conditions: Homo sapiens, read-out: MV4
How it was run: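 Luminescent CellTiter-Glo readout after 72 h culture, 37 °C, 5% CO2, expressed relative to vehicle-treated wells, with maximal inhibition taken at the highest dose. MLL-rearranged MV4-11 leukemia cells; final compound range 0.632 to 2000 nM in eight steps.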

[3] = MV4;11 leukemia cell line, 72 hours, 11 IC50

Chain of human Menin and N-terminal portion of human MLL (amino acids 4-43) (O00255 whole entry, the tested form may be a part): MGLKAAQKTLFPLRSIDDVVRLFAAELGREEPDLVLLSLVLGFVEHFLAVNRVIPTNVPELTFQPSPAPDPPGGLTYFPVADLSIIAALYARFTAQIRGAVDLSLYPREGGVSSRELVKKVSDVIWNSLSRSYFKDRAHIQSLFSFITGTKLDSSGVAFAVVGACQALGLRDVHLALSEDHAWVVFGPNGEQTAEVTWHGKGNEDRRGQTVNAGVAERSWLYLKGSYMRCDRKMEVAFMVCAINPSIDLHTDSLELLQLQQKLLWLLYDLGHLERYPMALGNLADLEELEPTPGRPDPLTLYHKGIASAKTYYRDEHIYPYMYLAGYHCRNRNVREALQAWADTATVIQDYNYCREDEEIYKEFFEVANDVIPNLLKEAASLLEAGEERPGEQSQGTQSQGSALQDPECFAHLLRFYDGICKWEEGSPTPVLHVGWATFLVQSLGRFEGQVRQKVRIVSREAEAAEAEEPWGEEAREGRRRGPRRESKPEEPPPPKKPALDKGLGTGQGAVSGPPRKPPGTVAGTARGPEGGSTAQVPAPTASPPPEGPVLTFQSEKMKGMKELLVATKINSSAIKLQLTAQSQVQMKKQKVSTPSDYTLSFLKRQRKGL

SMILES	IC50 [1]	IC50 [2, 3]	IC50 ([2]; MV4-11, 72 h, 11 IC50 (nM))
CCN(C(=O)c1cc(F)ccc1Oc1cncnc1N1CC2(CCN(C[C@H]3CC[C@H](NS(=O)(=O)CC)CO3)CC2)C1)C(C)C [Example 52, N-Ethyl-2-((4-(7-(((2R,5S)-5-(ethylsulfonamido)tetrahydro-2H-pyran-2-yl)methyl)-2,7-diazaspiro[3.5]nonan-2-yl)pyrimidin-5-yl)oxy)-5-fluoro-N-isopropylbenzamide]	< 100 nM	100 to 1000 nM	
CC(C)N(CC(F)F)C(=O)c1cc(F)ccc1Oc1cncnc1N1CC2(CCN(C[C@@H]3CC[C@@H](NS(=O)(=O)NCC(F)F)CO3)CC2)C1 [Example 235, N-(2,2-Difluoroethyl)-2-((4-(7-(((2S,5R)-5-((N-(2,2-difluoroethyl)sulfamoyl)amino)tetrahydro-2H-pyran-2-yl)methyl)-2,7-diazaspiro[3.5]nonan-2-yl)pyrimidin-5-yl)oxy)-5-fluoro-N-isopropylbenzamide]			< 100 nM
CC(C)N(CC(F)F)C(=O)c1cc(F)ccc1Oc1cncnc1N1CC2(CCN(C[C@@H]3CC[C@@H](NS(=O)(=O)N(C)CCO)CO3)CC2)C1 [Example 239, N-(2,2-difluoroethyl)-5-fluoro-2-((4-(7-(((2S,5R)-5-((N-(2-hydroxyethyl)-N-methylsulfamoyl)amino)tetrahydro-2H-pyran-2-yl)methyl)-2,7-diazaspiro[3.5]nonan-2-yl)pyrimidin-5-yl)oxy)-N-isopropylbenzamide]		< 100 nM	
CC(C)N(CC(F)F)C(=O)c1cc(F)ccc1Oc1cncnc1N1CC2(CCN(C[C@@H]3CC[C@@H](NS(N)(=O)=O)CO3)CC2)C1 [Example 240, N-(2,2-Difluoroethyl)-5-fluoro-N-isopropyl-2-((4-(7-(((2S,5R)-5-(sulfamoylamino)tetrahydro-2H-pyran-2-yl)methyl)-2,7-diazaspiro[3.5]nonan-2-yl)pyrimidin-5-yl)oxy)benzamide]		< 100 nM	
CCS(=O)(=O)N[C@@H]1CC[C@@H](CN2CCC3(CC2)CN(c2ncncc2Oc2ccc(F)cc2C(=O)N(CCC(F)F)C(C)C)C3)OC1 [Example 242, N-(3,3-Difluoropropyl)-2-((4-(7-(((2S,5R)-5-(ethylsulfonamido)tetrahydro-2H-pyran-2-yl)methyl)-2,7-diazaspiro[3.5]nonan-2-yl)pyrimidin-5-yl)oxy)-5-fluoro-N-isopropylbenzamide]		< 100 nM	
CC(C)N(C(=O)c1cc(F)ccc1Oc1cncnc1N1CC2(CCN(C[C@@H]3CC[C@@H](NS(=O)(=O)C4CC4)CO3)CC2)C1)C1COC1 [Example 247, 2-((4-(7-(((2S,5R)-5-(Cyclopropanesulfonamido)tetrahydro-2H-pyran-2-yl)methyl)-2,7-diazaspiro[3.5]nonan-2-yl)pyrimidin-5-yl)oxy)-5-fluoro-N-isopropyl-N-(oxetan-3-yl)benzamide]		< 100 nM	
CC(C)N(C(=O)c1cc(F)ccc1Oc1cncnc1N1CC2(CCN(C[C@@H]3CC[C@@H](NS(=O)(=O)N4CCC4)CO3)CC2)C1)C1COC1 [Example 248, 2-((4-(7-(((2S,5R)-5-(Azetidine-1-sulfonamido)tetrahydro-2H-pyran-2-yl)methyl)-2,7-diazaspiro[3.5]nonan-2-yl)pyrimidin-5-yl)oxy)-5-fluoro-N-isopropyl-N-(oxetan-3-yl)benzamide]		< 100 nM	
CC(C)N(C(=O)c1cc(F)ccc1Oc1cncnc1N1CC2(CCN(C[C@@H]3CC[C@@H](NS(=O)(=O)N(C)C)CO3)CC2)C1)C1COC1 [Example 249, 2-((4-(7-(((2S,5R)-5-((N,N-Dimethylsulfamoyl)amino)tetrahydro-2H-pyran-2-yl)methyl)-2,7-diazaspiro[3.5]nonan-2-yl)pyrimidin-5-yl)oxy)-5-fluoro-N-isopropyl-N-(oxetan-3-yl)benzamide]		< 100 nM	
CCS(=O)(=O)N[C@@H]1CC[C@@H](CN2CCC3(CC2)CN(c2ncncc2Oc2ccc(F)cc2C(=O)N(C(C)C)C2CCOCC2)C3)OC1 [Example 250, 2-((4-(7-(((2S,5R)-5-(Ethylsulfonamido)tetrahydro-2H-pyran-2-yl)methyl)-2,7-diazaspiro[3.5]nonan-2-yl)pyrimidin-5-yl)oxy)-5-fluoro-N-isopropyl-N-(tetrahydro-2H-pyran-4-yl)benzamide]		< 100 nM	
CCS(=O)(=O)N[C@@H]1CC[C@@H](CN2CCC3(CC2)CN(c2ncncc2Oc2ccc(F)cc2C(=O)N(C(C)C)[C@@H]2C[C@@H]4CC[C@H]2O4)C3)OC1 [Example 251, N-((1R,2R,4S)-7-Oxabicyclo[2.2.1]heptan-2-yl)-2-((4-(7-(((2S,5R)-5-(ethylsulfonamido)tetrahydro-2H-pyran-2-yl)methyl)-2,7-diazaspiro[3.5]nonan-2-yl)pyrimidin-5-yl)oxy)-5-fluoro-N-isopropylbenzamide]		< 100 nM	
CCS(=O)(=O)N[C@@H]1CC[C@@H](CN2CCC3(CC2)CN(c2ncncc2Oc2ccc(F)cc2C(=O)N(C(C)C)C2CC4(COC4)C2)C3)OC1 [Example 252, 2-((4-(7-(((2S,5R)-5-(Ethylsulfonamido)tetrahydro-2H-pyran-2-yl)methyl)-2,7-diazaspiro[3.5]nonan-2-yl)pyrimidin-5-yl)oxy)-5-fluoro-N-isopropyl-N-(2-oxaspiro[3.3]heptan-6-yl)benzamide]		< 100 nM	
COCCN(C(=O)c1cc(F)ccc1Oc1cncnc1N1CC2(CCN(C[C@@H]3CC[C@@H](NS(=O)(=O)c4ccccc4)CO3)CC2)C1)C(C)C [Example 254, 5-Fluoro-N-isopropyl-N-(2-methoxyethyl)-2-((4-(7-(((2S,5R)-5-(phenylsulfonamido)tetrahydro-2H-pyran-2-yl)methyl)-2,7-diazaspiro[3.5]nonan-2-yl)pyrimidin-5-yl)oxy)benzamide]		< 100 nM	
CCS(=O)(=O)N[C@@H]1CC[C@@H](CN2CCC3(CC2)CN(c2ncncc2Oc2ccc(F)cc2C(=O)N(C[C@@H](O)CO)C(C)C)C3)OC1 [Example 255, N-((R)-2,3-Dihydroxypropyl)-2-((4-(7-(((2S,5R)-5-(ethylsulfonamido)tetrahydro-2H-pyran-2-yl)methyl)-2,7-diazaspiro[3.5]nonan-2-yl)pyrimidin-5-yl)oxy)-5-fluoro-N-isopropylbenzamide]			100 to 1000 nM
CCS(=O)(=O)N[C@@H]1CC[C@@H](CN2CCC3(CC2)CN(c2ncncc2Oc2ccc(F)cc2C(=O)N(C(C)C)[C@@H]2CC[C@@H]2O)C3)OC1 [Example 258, 2-((4-(7-(((2S,5R)-5-(Ethylsulfonamido)tetrahydro-2H-pyran-2-yl)methyl)-2,7-diazaspiro[3.5]nonan-2-yl)pyrimidin-5-yl)oxy)-5-fluoro-N-((1R,2S)-2-hydroxycyclobutyl)-N-isopropylbenzamide]		< 100 nM	

From patent US11919901B2 (Syndax Pharmaceuticals, Inc., priority 2021, dated 2024)
